Drawing on patent US20220363667A1 (Nippon Chemiphar Co., Ltd., priority 2018, published 2022), this text covers inhibition in vivo for 32 compounds.

Counter-ions that a name gives are not always drawn.

This experiment relates to SD rats. Put plainly: Rat formalin test. The format is in vivo. Conditions: po, 30 mg/kg orally once, pain behavior time from 15 to 30 minutes after formalin administration vs vehicle group, read-out: Inhibition ratio (pain behavior inhibition ratio). Here is the method:
30 mg/kg of a vehicle or a test substance was orally administrated to SD rats once, and according to the method described in McNamara C. R., Mandel-Brehm J., Bautista D. M., Siemens J., Deranian K. L., Zhao M., Hayward N. J., Chong J. A., Julius D., Moran M. M., Fanger C. M.: TRPA1 mediates formalin-induced pain. Proc. Natl. Acad. Sci. U.S.A. 104, 2007, 13525-13530, 50 μL of a 2.0% formalin solution as a pain-inducing substance was subcutaneously administered under the skin of the plantar plate of the right hind limb of each rat.
Regarding the evaluation, the pain behavior inhibition ratio was determined from the pain behavior time of each test substance-administered group with respect to the pain behavior time of the vehicle-administered group for 15 minutes measured from 15 minutes to 30 minutes after the administration.
With `N#CC1(NC(=O)Cc2ccc(C3CC3)cc2)CCN(c2cncc(C(F)(F)F)c2)C1` (centres unmarked) [Example 36, N-(3-cyano-1-(5-(trifluoromethyl)pyridin-3-yl)pyrrolidin-3-yl)-2-(4-cyclopropylphenyl)acetamide], the inhibition in vivo at 30 mg/kg was less than 10%.

On to `O=C(Cc1ccc(C2CC2)cc1)N[C@@H]1CCN(c2ccc(C(F)(F)F)nc2)C1` [Example 121, (R)-2-(4-cyclopropylphenyl)-N-(1-(6-(trifluoromethyl)pyridin-3-yl)pyrrolidin-3-yl)acetamide], for which the inhibition in vivo at 30 mg/kg was less than 10%. As for `O=C(Cc1ccc(N2CCC(F)(F)C2)cc1)N[C@@H]1CCN(c2ccc(C(F)(F)F)nc2)C1` [Example 84, (R)-2-(4-(3,3-difluoropyrrolidin-1-yl)phenyl)-N-(1-(6-(trifluoromethyl)pyridin-3-yl)pyrrolidin-3-yl)acetamide], the figure is less than 10%; as for `O=C(Cc1ccc(C(F)(F)F)cc1)N[C@@H]1CCN(c2cncc(C(F)(F)F)n2)C1` [Example 11, (R)-2-(4-(trifluoromethyl)phenyl)-N-(1-(6-(trifluoromethyl)pyrazin-2-yl)pyrrolidin-3-yl)acetamide], no less than 20%. With `O=C(Cc1ccc2cc[nH]c2c1)N[C@@H]1CCN(c2ccc(C(F)(F)F)nc2)C1` [Example 85, (R)-2-(1H-indol-6-yl)-N-(1-(6-(trifluoromethyl)pyridin-3-yl)pyrrolidin-3-yl)acetamide], the inhibition in vivo at 30 mg/kg was less than 10%. `CC(C)c1ccc(CC(=O)NC2CCN(c3cncc(C(F)(F)F)c3)CC2)cc1` [Example 109, 2-(4-Isopropylphenyl)-N-(1-(5-(trifluoromethyl)pyridin-3-yl)piperidin-4-yl)acetamide]: the inhibition in vivo at 30 mg/kg was no less than 20%.

As to `O=C(N[C@@H]1CCN(c2cncc(C(F)(F)F)c2)C1)[C@H]1C[C@@H]1c1nc2cc(F)ccc2o1` [Example 49, (1S,2S)-2-(5-fluorobenzo[d]oxazol-2-yl)-N—((R)-1-(5-(trifluoromethyl)pyridin-3-yl)pyrrolidin-3-yl)cyclopropane-1-carboxyamide], the inhibition in vivo at 30 mg/kg was no less than 20%. For `O=C(Cc1ccc(C2CC2)cc1)N[C@H]1CN(c2cncc(C(F)(F)F)c2)C[C@@H]1O` [Example 5, 2-(4-Cyclopropylphenyl)-N-((3S,4S)-4-hydroxy-1-(5-(trifluoromethyl)pyridin-3-yl)pyrrolidin-3-yl)acetamide], the inhibition in vivo at 30 mg/kg was no less than 20%. As to `O=C(Cc1ccc(C2CC2)cc1)N[C@@H]1CCN(c2cncc(C(F)(F)F)c2)C1` [Example 1, (R)-2-(4-cyclopropylphenyl)-N-(1-(5-(trifluoromethyl)pyridin-3-yl)pyrrolidin-3-yl)acetamide], the inhibition in vivo at 30 mg/kg is no less than 20%.

Take `CC(C)(C(=O)N[C@@H]1CCN(c2cncc(C(F)(F)F)c2)C1)c1ccc(C2CC2)cc1` [Example 135, (R)-2-(4-cyclopropylphenyl)-2-methyl-N-(1-(5-(trifluoromethyl)pyridin-3-yl)pyrrolidin-3-yl)propanamide]: the inhibition in vivo at 30 mg/kg was less than 10%.

Turning to `O=C(Cc1ccc2cc[nH]c2c1)N[C@@H]1CCN(c2cncc(C(F)(F)F)c2)C1` [Example 124, (R)-2-(1H-indol-6-yl)-N-(1-(5-(trifluoromethyl)pyridin-3-yl)pyrrolidin-3-yl)acetamide], the inhibition in vivo at 30 mg/kg is no less than 20%.

For the compound `O=C(N[C@@H]1CCN(c2cncc(C(F)(F)F)c2)C1)[C@H]1C[C@@H]1c1nc2ccccc2o1` [Example 39, (1S,2S)-2-(benzo[d]oxazol-2-yl)-N—((R)-1-(5-(trifluoromethyl)pyridin-3-yl)pyrrolidin-3-yl)cyclopropane-1-carboxyamide], the inhibition in vivo at 30 mg/kg is no less than 20%. With `CC(C)c1ccc(CC(=O)N[C@@H]2CCN(c3cncc(C(F)(F)F)c3)C2)cc1` [Example 4, (R)-2-(4-isopropylphenyl)-N-(1-(5-(trifluoromethyl)pyridin-3-yl)pyrrolidin-3-yl)acetamide], the inhibition in vivo at 30 mg/kg was no less than 20%. For `O=C(Cc1ccc(N2CCS(=O)(=O)CC2)cc1)N[C@@H]1CCN(c2cncc(C(F)(F)F)c2)C1` [Example 23, (R)-2-(4-(1,1-dioxidethiomorpholino)phenyl)-N-(1-(5-(trifluoromethyl)pyridin-3-yl)pyrrolidin-3-yl)acetamide], the inhibition in vivo at 30 mg/kg is less than 10%. As for `O=C(N[C@@H]1CCN(c2cnc(C(F)(F)F)nc2)C1)[C@H]1C[C@@H]1c1nc2ccccc2[nH]1` [Example 70, (1S,2S)-2-(1H-benzo[d]imidazol-2-yl)-N—((R)-1-(2-(trifluoromethyl)pyrimidin-5-yl)pyrrolidin-3-yl)cyclopropane-1-carboxyamide], the inhibition in vivo at 30 mg/kg is less than 10%. Then `O=C(Cc1ccc(N2CCOCC2)cc1)N[C@@H]1CCN(c2cncc(C(F)(F)F)c2)C1` [Example 181, (R)-2-(4-morpholinophenyl)-N-(1-(5-(trifluoromethyl)pyridin-3-yl)pyrrolidin-3-yl)acetamide], with no less than 20%; and `COc1ncc(N2CC[C@@H](NC(=O)Cc3ccc(C(C)C)cc3)C2)cc1C(F)(F)F` [Example 110, (R)-2-(4-isopropylphenyl)-N-(1-(6-methoxy-5-(trifluoromethyl)pyridin-3-yl)pyrrolidin-3-yl)acetamide], with no less than 20%; and `CC(C)c1ccc(CC(=O)NC2CN(c3cncc(C(F)(F)F)c3)C2)cc1` [Example 117, 2-(4-Isopropylphenyl)-N-(1-(5-(trifluoromethyl)pyridin-3-yl)azetidin-3-yl)acetamide], with no less than 20%. As for `O=C(N[C@@H]1CCN(c2ccc(C(F)(F)F)nc2)C1)[C@H]1C[C@@H]1c1nc2ccccc2[nH]1` [Example 54, (1S,2S)-2-(1H-benzo[d]imidazol-2-yl)-N—((R)-1-(6-(trifluoromethyl)pyridin-3-yl)pyrrolidin-3-yl)cyclopropane-1-carboxyamide], the figure is less than 10%. Consider `CC(C)c1ccc(CC(=O)N[C@@H]2CCN(c3ccc(C(F)(F)F)nc3)C2)cc1` [Example 113, (R)-2-(4-isopropylphenyl)-N-(1-(6-(trifluoromethyl)pyridin-3-yl)pyrrolidin-3-yl)acetamide], for which the inhibition in vivo at 30 mg/kg was 10 to 20%. As for `O=C(Cc1ccc(C(F)(F)F)cc1F)N[C@@H]1CCN(c2cncc(C(F)(F)F)c2)C1` [Example 141, (R)-2-(2-fluoro-4-(trifluoromethyl)phenyl)-N-(1-(5-(trifluoromethyl)pyridin-3-yl)pyrrolidin-3-yl)acetamide], the figure is less than 10%; as for `CC(C)(O)c1ccc(CC(=O)N[C@@H]2CCN(c3cncc(C(F)(F)F)c3)C2)cc1` [Example 131, (R)-2-(4-(2-hydroxypropan-2-yl)phenyl)-N-(1-(5-(trifluoromethyl)pyridin-3-yl)pyrrolidin-3-yl)acetamide], less than 10%. Take `O=C(N[C@@H]1CCN(c2cncc(C(F)(F)F)c2)C1)[C@H]1C[C@@H]1c1nc2ccccc2[nH]1` [Example 71, (1S,2S)-2-(1H-benzo[d]imidazol-2-yl)-N—((R)-1-(5-(trifluoromethyl)pyridin-3-yl)pyrrolidin-3-yl)cyclopropane-1-carboxyamide]: the inhibition in vivo at 30 mg/kg is less than 10%. Consider `N#Cc1ncc(N2CC[C@@H](NC(=O)Cc3ccc(C4CC4)cc3)C2)cc1C(F)(F)F` [Example 12, (R)—N-(1-(6-cyano-5-(trifluoromethyl)pyridin-3-yl)pyrrolidin-3-yl)-2-(4-cyclopropylphenyl)acetamide], for which the inhibition in vivo at 30 mg/kg was in the range of 10 to 20%. Take `O=C(Cc1ccc2cccnc2c1)N[C@@H]1CCN(c2cncc(C(F)(F)F)c2)C1` [Example 79, (R)-2-(quinolin-7-yl)-N-(1-(5-(trifluoromethyl)pyridin-3-yl)pyrrolidin-3-yl)acetamide hydrochloride]: the inhibition in vivo at 30 mg/kg was less than 10%. For the compound `O=C(Cc1ccc(C2CC2)cc1)N[C@H]1CN(c2nc(C(F)(F)F)cs2)CC12CC2` [Example 8, (R)-2-(4-cyclopropylphenyl)-N-(5-(4-(trifluoromethyl)thiazol-2-yl)-5-azaspiro[2.4]heptan-7-yl)acetamide], the inhibition in vivo at 30 mg/kg is less than 10%. Consider `COC(=O)C1(NC(=O)Cc2ccc3cc[nH]c3c2)CCN(c2cncc(C(F)(F)F)c2)C1` (centres unmarked) [Example 37, Methyl 3-(2-(1H-indol-6-yl)acetamido)-1-(5-(trifluoromethyl)pyridin-3-yl)pyrrolidine-3-carboxylate], for which the inhibition in vivo at 30 mg/kg was less than 10%. For the compound `O=C(N[C@@H]1CCN(c2cncc(C(F)(F)F)c2)C1)C1CC1c1ccc(Br)cc1` (single isomer, unassigned) [Example 100A], the inhibition in vivo at 30 mg/kg is no less than 20%.

Regarding `O=C(Cc1ccc2ncccc2c1)N[C@@H]1CCN(c2cncc(C(F)(F)F)c2)C1` [Example 77, (R)-2-(quinolin-6-yl)-N-(1-(5-(trifluoromethyl)pyridin-3-yl)pyrrolidin-3-yl)acetamide], the inhibition in vivo at 30 mg/kg is less than 10%.

Turning to `O=C(Cc1ccc(C(F)(F)F)cc1)N[C@@H]1CCN(c2cncc(C(F)(F)F)c2)C1` [Example 123, (R)-2-(4-(trifluoromethyl)phenyl)-N-(1-(5-(trifluoromethyl)pyridin-3-yl)pyrrolidin-3-yl)acetamide], the inhibition in vivo at 30 mg/kg was no less than 20%. As to `CC(C)c1ccc(CC(=O)N[C@@H]2CCN(c3nc(C(F)(F)F)cs3)C2)cc1` [Example 112, (R)-2-(4-isopropylphenyl)-N-(1-(4-(trifluoromethyl)thiazol-2-yl)pyrrolidin-3-yl)acetamide], the inhibition in vivo at 30 mg/kg was no less than 20%. With `O=C(N[C@@H]1CCN(c2cncc(C(F)(F)F)c2)C1)C1CC1c1cc(Cl)cc(Cl)c1` (single isomer, unassigned) [Example 99A], the inhibition in vivo at 30 mg/kg was less than 10%.
